Test results: patent publication US6780996B2, “Process for the preparation of 7-substituted-3 quinolinecarbonitriles” (Wyeth Holdings Corporation, priority 2002, dated 2004)

melting point [°C] | Compound
107 to 109 | COCCOc1cc2ncc(C#N)c(Nc3ccc(C)cc3C)c2cc1OC [Example 40, 4-[(2,4-Dimethylphenyl)amino]-6-methoxy-7-(2-methoxyethoxy)quinoline-3-carbonitrile]
270 to 272 | COc1cc2c(Nc3ccc(Sc4nccn4C)c(Cl)c3)c(C#N)cnc2cc1N1CCN(C)CC1 [Example 27, 4-[3-Chloro-4-(1-methyl-1H-imidazol-2-ylsulfanyl)-phenylamino]-6-methoxy-7-(4-methylpiperazin-1-yl)-quinoline-3-carbonitrile]
198 to 200 | COc1cc2c(Nc3ccc(Sc4nccn4C)c(Cl)c3)c(C#N)cnc2cc1NCCCN(C)C [Example 29, 4-[3-Chloro-4-(1-methyl-1H-imidazol-2-ylsulfanyl)-phenylamino]-7-{[3-(dimethyl)aminopropyl]amino}-6-methoxyquinoline-3-carbonitrile]
198 to 200 | COc1cc(Nc2c(C#N)cnc3cc(OCc4ccccc4)c(OC)cc23)c(Cl)cc1Cl [Example 6, 7-Benzyloxy-4-[(2,4-dichloro-5-methoxyphenyl)amino]-6-methoxy-3-quinolinecarbonitrile]
144 to 145 | COCCOc1ccc2c(Nc3ccc(Cl)cc3Cl)c(C#N)cnc2c1 [Example 34, 4-[(2,4-Dichlorophenyl)amino]-7-(2-methoxyethoxy)-3-quinolinecarbonitrile]
182 to 183 | COCCOc1ccc2c(Nc3cc(OC)c(Cl)cc3Cl)c(C#N)cnc2c1 [Example 33, 4-[(2,4-Dichloro-5-methoxyphenyl)amino]-7-(2-methoxyethoxy)-3-quinolinecarbonitrile]
215 to 217 | CCOc1cc2c(Nc3cc(OC)c(Cl)cc3Cl)c(C#N)cnc2cc1OCCOC [Example 23, 4-[(2,4-Dichloro-5-methoxyphenyl)amino]-6-ethoxy-7-(2-methoxyethoxy)3-quinolinecarbonitrile]
192 to 195 | CCN1CCC(COc2cc3ncc(C#N)c(Nc4cc(OC)c(Cl)cc4Cl)c3cc2OC)CC1 [Example 51, 4-[(2,4-Dichloro-5-methoxyphenyl)amino]-7-[(1-ethylpiperidine-4-yl)methoxy]-6-methoxyquinoline-3-carbonitrile]
116 to 117 | COc1cc(Nc2c(C#N)cnc3cc(N(C)CCCN(C)C)c(OC)cc23)c(Cl)cc1Cl [Example 55, 4-[(2,4-Dichloro-5-methoxyphenyl)amino]-7-{[3-(dimethylamino)propyl](methyl)amino]-6-methoxyquinoline-3-carbonitrile]
182 to 184 | COc1cc2c(Nc3ccc(Oc4cccnc4)cc3)c(C#N)cnc2cc1OCC1CCN(C)CC1 [Example 57, 6-Methoxy-7-(1-methyl-piperidin-4-ylmethoxy)-4-{[4-(pyridin-3-yloxy)-phenyl]amino}quinoline-3-carbonitrile]
158 to 159 | COCCOc1cc2ncc(C#N)c(Nc3cc(OC)c(Cl)cc3Cl)c2cc1OCCN1CCOCC1 [Example 26, 4-[(2,4-Dichloro-5-methoxyphenyl)amino]-7-(2-methoxyethoxy)-6-(2-morpholin-4-ylethoxy)3-quinolinecarbonitrile]
165 to 167 | COc1cc(Nc2c(C#N)cnc3cc(NCCCN(C)C)c(OC)cc23)c(Cl)cc1Cl [Example 54, 4-[(2,4-Dichloro-5-methoxyphenyl)amino]-7-{[3-(dimethylamino)propyl]amino}-6-methoxyquinoline-3-carbonitrile]
118 to 120 | COc1cc(Nc2c(C#N)cnc3cc(OCCCN4CCS(=O)(=O)CC4)c(OC)cc23)c(Cl)cc1Cl [Example 3, 4-[(2,4-Dichloro-5-methoxyphenyl)amino]-7-[3-(1,1-dioxido-4-thiomorpholinyl)propoxy]-6-methoxy-3-quinolinecarbonitrile]
210 to 212 | COCCOc1cc2ncc(C#N)c(Nc3cc(OC)c(Cl)cc3Cl)c2cc1OC [Example 14, 4-[(2,4-Dichloro-5-methoxyphenyl)amino]-6-methoxy-7-[2-methoxyethoxy]-3-quinolinecarbonitrile]
188 to 190 | COCCOc1cc2ncc(C#N)c(Nc3cc(OC)c(OC)c(OC)c3)c2cc1OC [Example 17, 6-Methoxy-7-[2-methoxyethoxy]-4-[(3,4,5-trimethoxyphenyl)amino]-3-quinolinecarbonitrile]
143 to 145 | COCCOc1cc2ncc(C#N)c(Nc3cc(OC)c(C)cc3C)c2cc1OC [Example 37, 4-[(2,4-Dimethyl-5-methoxyphenyl)amino]-6-methoxy-7-(2-methoxyethoxy)quinoline-3-carbonitrile]

Further lines, the compound ahead of its results:

Compound | melting point [°C]
COCCOc1cc2c(Nc3ccc(Sc4nccn4C)c(Cl)c3)c(C#N)cnc2cc1OCCCN(C)C [Example 20, 4-({3-Chloro-4-[(1-methyl-1H-imidazol-2-yl)sulfanyl]phenyl}amino)-7-[3-(dimethylamino)propoxy]-6-(2-methoxyethoxy)-3-quinolinecarbonitrile] | 194 to 203
COCCNc1cc2ncc(C#N)c(Nc3cc(OC)c(Cl)cc3Cl)c2cc1OC [Example 56, 4-[(2,4-Dichloro-5-methoxyphenyl)amino]-6-methoxy-7-[(2-methoxyethyl)amino]quinoline-3-carbonitrile] | 165 to 166
COc1ccc(C)c(Nc2c(C#N)cnc3cc(OCCCC4CCN(C)CC4)c(OC)cc23)c1 [Example 48, 6-Methoxy-4-[(5-methoxy-2-methylphenyl)amino]-7-[3-(1-methylpiperidine-4-yl)propoxy]quinoline-3-carbonitrile] | 163 to 166
CC#CCOc1cc2ncc(C#N)c(Nc3cc(OC)c(Cl)cc3Cl)c2cc1OC [Example 1, 7-(2-Butynyloxy)-4-[(2,4-dichloro-5-methoxyphenyl)amino]-6-methoxy-3-quinolinecarbonitrile] | 193 to 197
COc1cc(Nc2c(C#N)cnc3cc(Oc4ccncc4)c(OC)cc23)c(Cl)cc1Cl [Example 12, 4-[(2,4-Dichloro-5-methoxyphenyl)amino]-6-methoxy-7-(pyridin-4-yloxy)-3-quinolinecarbonitrile] | 267 to 269
COc1cc2c(Nc3ccc(C)cc3C)c(C#N)cnc2cc1OCCCC1CCN(C)CC1 [Example 49, 4-[(2,4-Dimethylphenyl)amino]-6-methoxy-7-[3(1-methylpiperidine-4-yl)propoxy]quinoline-3-carbonitrile] | 159 to 162
COc1cc(Nc2c(C#N)cnc3cc(SCc4ccccc4)c(OC)cc23)c(Cl)cc1Cl [Example 11, 7-Benzylthio-4-[(2,4-dichloro-5-methoxyphenyl)amino]-6-methoxy-3-quinolinecarbonitrile] | 123 to 125
COCCOc1cc2c(Nc3cc(OC)c(Cl)cc3Cl)c(C#N)cnc2cc1OCC1CCN(C)CC1 [Example 22, 4-[(2,4-Dichloro-5-methoxyphenyl)amino]-6-[2-methoxyethoxy]-7-[(1-methylpiperidine-4-yl)methoxy]3-quinolinecarbonitrile] | 153 to 155
COc1cc(Nc2c(C#N)cnc3cc(OCc4cccs4)c(OC)cc23)c(Cl)cc1Cl [Example 5, 4-[(2,4-Dichloro-5-methoxyphenyl)amino]-6-methoxy-7-(2-thienylmethoxy)-3-quinolinecarbonitrile] | 194 to 196
COCCOc1cc2ncc(C#N)c(NC3CCCC3)c2cc1OC [Example 9, 4-Cyclopentylamino-6-methoxy-7-(2-methoxyethoxy)-3-quinolinecarbonitrile] | 87 to 90
COc1cc2c(Nc3ccc(Sc4nccn4C)c(Cl)c3)c(C#N)cnc2cc1N(C)CCCN(C)C [Example 30, 4-[3-Chloro-4-(1-methyl-1H-imidazol-2-ylsulfanyl)-phenylamino]-7-{[3-(dimethylamino)propyl]-methylamino}-6-methoxyquinoline-3-carbonitrile] | 196 to 201
COc1cc(Nc2c(C#N)cnc3cc(NCCCC4CCN(C)CC4)c(OC)cc23)c(Cl)cc1Cl [Example 28, 4-[(2,4-Dichloro-5-methoxyphenyl)amino]-6-methoxy-7-{[3-(1-methylpiperidin-4-yl)propyl]amino}quinoline-3-carbonitrile] | 122 to 124
COc1cc(Nc2c(C#N)cnc3cc(OCC4CCNCC4)c(OC)cc23)c(Cl)cc1Cl [Example 53, 4-[(2,4-Dichloro-5-methoxyphenyl)amino]-6-methoxy-7-(piperidin-4-ylmethoxy)quinoline-3-carbonitrile] | 134 to 138
COCCOc1cc2ncc(C#N)c(Nc3cc(OC)ccc3Cl)c2cc1OC [Example 38, 4-[(2-Chloro-5-methoxyphenyl)amino]-6-methoxy-7-(2-methoxyethoxy)quinoline-3-carbonitrile] | 179 to 181
COc1cc(Nc2c(C#N)cnc3cc(OCC(C)(C)CN(C)C)c(OC)cc23)c(Cl)cc1Cl [Example 2, 4-[(2,4-Dichloro-5-methoxyphenyl)amino]-7-(3-dimethylamino-2,2-dimethylpropoxy)-6-methoxy-3-quinolinecarbonitrile] | 178 to 180
CCCCOc1cc2c(Nc3cc(OC)c(Cl)cc3Cl)c(C#N)cnc2cc1OCCOC [Example 24, 6-Butoxy-4-[(2,4-dichloro-5-methoxyphenyl)amino]-7-(2-methoxyethoxy)-3-quinolinecarbonitrile] | 166 to 167
COc1cc(Nc2c(C#N)cnc3cc(OCC4CCCCO4)c(OC)cc23)c(Cl)cc1Cl (centres unmarked) [Example 25, 4-[(2,4-Dichloro-5-methoxyphenyl)amino]-6-methoxy-7-(tetrahydro-2H-pyran-2-ylmethoxy)3-quinolinecarbonitrile] | 193 to 196
CCN1CCN(CCCOc2cc3ncc(C#N)c(Nc4ccc(Sc5nccn5C)c(Cl)c4)c3cc2OCCOC)CC1 [Example 21, 4-({3-Chloro-4-[(1-methyl-1H-imidazol-2-yl)sulfanyl]phenyl}amino)-7-[3-(4-ethyl-1-piperazinyl)propoxy]-6-(2-methoxyethoxy)-3-quinolinecarbonitrile] | 188 to 190
CCCCNc1c(C#N)cnc2cc(OCCOC)c(OC)cc12 [Example 10, 4-Butylamino-6-methoxy-7-(2-methoxyethoxy)-3-quinolinecarbonitrile] | 99 to 102
